Results as given in ChEMBL document CHEMBL2069214, “Discovery of triazolopyrimidine-based PDE8B inhibitors: exceptionally ligand-efficient and lipophilic ligand-efficient compounds for the treatment of diabetes” (Bioorg Med Chem Lett, 2012).
Values after ≈ are worked out from the molar mass of the structure shown. Active and inactive are the calls of the source. The calls are words filed in the database; no cut-off is given here.

Legend:
[1] = Intrinsic clearance in human liver microsomes; assay type: ADME, Microsome; conditions: read-out: CLH
[2] = Solubility of the compound; assay type: physicochemical
[3] = (§1) Intrinsic clearance in rat liver microsomes; assay type: ADME, Microsome; conditions: liver microsomes, read-out: CLH
[4] = system: Salmonella typhimurium; test: Genotoxicity in Salmonella typhimurium; assay type: toxicity, organism-based; conditions: salmonella enterica subsp. enterica serovar typhimurium
[5] = Clearance in iv dosed rat; assay type: ADME, organism-based; conditions: in vivo
[6] = Clearance in iv dosed dog; assay type: ADME, organism-based, Canis lupus familiaris; conditions: in vivo
[7] = Genotoxicity in micronucleus
[8] = Oral bioavailability in dog; assay type: ADME, organism-based, Canis lupus familiaris; conditions: in vivo
[9] = Oral bioavailability in rat; assay type: ADME, organism-based; conditions: in vivo
[10] = Volume of distribution at steady state in iv dosed dog; assay type: ADME, organism-based, Canis lupus familiaris; conditions: in vivo, read-out: Vdss
[11] = Volume of distribution at steady state in iv dosed rat; assay type: ADME, organism-based; conditions: in vivo, read-out: Vdss
[12] = biological target: High affinity cAMP-specific and IBMX-insensitive 3',5'-cyclic phosphodiesterase 8B (Homo sapiens, UniProt O95263); test: Inhibition of PDE8B expressed in Sf9 insect cells
High affinity cAMP-specific and IBMX-insensitive 3',5'-cyclic phosphodiesterase 8B, sequence (O95263 whole entry): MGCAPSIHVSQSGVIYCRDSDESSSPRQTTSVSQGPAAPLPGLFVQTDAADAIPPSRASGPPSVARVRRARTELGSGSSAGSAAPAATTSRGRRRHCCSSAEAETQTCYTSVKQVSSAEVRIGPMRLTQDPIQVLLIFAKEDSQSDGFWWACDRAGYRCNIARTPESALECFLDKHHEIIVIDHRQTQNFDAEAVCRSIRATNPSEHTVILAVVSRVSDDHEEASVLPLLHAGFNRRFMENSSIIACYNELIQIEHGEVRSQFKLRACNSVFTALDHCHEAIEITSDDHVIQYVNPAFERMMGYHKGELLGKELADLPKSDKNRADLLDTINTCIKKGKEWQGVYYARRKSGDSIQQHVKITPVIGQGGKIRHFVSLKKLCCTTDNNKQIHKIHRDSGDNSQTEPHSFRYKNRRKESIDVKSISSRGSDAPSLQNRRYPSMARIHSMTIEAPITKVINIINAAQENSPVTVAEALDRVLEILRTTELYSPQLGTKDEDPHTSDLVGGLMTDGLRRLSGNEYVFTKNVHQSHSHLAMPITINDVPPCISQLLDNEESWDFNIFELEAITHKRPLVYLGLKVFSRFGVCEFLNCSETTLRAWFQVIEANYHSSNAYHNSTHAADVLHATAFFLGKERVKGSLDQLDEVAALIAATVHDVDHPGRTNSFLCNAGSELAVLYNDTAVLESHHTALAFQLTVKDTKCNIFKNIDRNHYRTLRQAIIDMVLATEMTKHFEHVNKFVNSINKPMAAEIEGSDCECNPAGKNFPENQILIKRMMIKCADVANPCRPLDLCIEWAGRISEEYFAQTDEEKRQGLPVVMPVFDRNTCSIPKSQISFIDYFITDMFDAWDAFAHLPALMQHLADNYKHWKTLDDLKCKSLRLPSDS

[13] = system: Liver microsomes; test: as §1; assay type: ADME, Microsome; conditions: microsomes
[14] = biological target: 3',5'-cyclic-AMP phosphodiesterase 4C (Homo sapiens) (UniProt Q08493); test: Inhibition of PDE4C at 1 uM
3',5'-cyclic-AMP phosphodiesterase 4C (Homo sapiens), sequence (Q08493 whole entry): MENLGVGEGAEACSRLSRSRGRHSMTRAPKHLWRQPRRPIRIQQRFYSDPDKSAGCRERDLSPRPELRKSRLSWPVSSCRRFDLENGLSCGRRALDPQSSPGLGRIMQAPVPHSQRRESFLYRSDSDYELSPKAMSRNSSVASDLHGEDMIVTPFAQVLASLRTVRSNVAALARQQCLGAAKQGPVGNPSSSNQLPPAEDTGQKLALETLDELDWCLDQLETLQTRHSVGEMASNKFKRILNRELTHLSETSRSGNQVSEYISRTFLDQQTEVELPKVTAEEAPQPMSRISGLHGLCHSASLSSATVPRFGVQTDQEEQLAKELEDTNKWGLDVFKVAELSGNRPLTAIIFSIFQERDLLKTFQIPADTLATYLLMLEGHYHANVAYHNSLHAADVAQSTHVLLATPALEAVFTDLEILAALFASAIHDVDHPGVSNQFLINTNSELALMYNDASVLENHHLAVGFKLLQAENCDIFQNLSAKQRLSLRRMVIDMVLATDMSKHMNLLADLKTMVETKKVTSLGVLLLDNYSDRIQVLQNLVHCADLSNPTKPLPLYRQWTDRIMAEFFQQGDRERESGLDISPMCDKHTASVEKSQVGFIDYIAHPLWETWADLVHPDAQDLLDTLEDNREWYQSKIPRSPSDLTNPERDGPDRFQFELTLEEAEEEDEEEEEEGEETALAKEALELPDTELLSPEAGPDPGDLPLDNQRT

[15] = biological target: 3',5'-cyclic-AMP phosphodiesterase 4D (Homo sapiens) (UniProt Q08499); test: Inhibition of PDE4D at 1 uM
3',5'-cyclic-AMP phosphodiesterase 4D (Homo sapiens), sequence (Q08499 whole entry): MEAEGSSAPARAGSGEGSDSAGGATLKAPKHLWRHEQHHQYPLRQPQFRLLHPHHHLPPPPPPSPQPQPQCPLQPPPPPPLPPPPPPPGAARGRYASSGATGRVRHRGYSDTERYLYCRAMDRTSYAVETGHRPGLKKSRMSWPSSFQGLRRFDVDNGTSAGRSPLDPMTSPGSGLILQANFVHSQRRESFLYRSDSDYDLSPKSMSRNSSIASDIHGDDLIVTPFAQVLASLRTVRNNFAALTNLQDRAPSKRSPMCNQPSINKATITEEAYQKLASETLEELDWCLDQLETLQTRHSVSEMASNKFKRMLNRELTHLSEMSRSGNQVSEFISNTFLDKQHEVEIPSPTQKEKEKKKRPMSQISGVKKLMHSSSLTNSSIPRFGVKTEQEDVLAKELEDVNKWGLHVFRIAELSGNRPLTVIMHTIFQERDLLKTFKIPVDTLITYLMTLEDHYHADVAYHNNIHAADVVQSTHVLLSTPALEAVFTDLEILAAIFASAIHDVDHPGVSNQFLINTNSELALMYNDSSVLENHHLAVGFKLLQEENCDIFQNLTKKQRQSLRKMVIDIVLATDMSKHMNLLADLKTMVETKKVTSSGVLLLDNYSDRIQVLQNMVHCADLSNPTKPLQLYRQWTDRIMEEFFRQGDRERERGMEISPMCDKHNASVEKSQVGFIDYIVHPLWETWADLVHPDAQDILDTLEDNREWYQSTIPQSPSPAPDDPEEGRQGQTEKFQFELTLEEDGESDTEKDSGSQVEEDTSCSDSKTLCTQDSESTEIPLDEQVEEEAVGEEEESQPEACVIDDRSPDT

[16] = Fraction unbound in dog plasma; assay type: ADME, cell-free, Canis lupus familiaris
[17] = system: Pancreatic islet; test: Induction of insulin secretion in human pancreatic islet cells at 0.001 to 100 uM in presence of glucose; assay type: functional
[18] = species: Homo sapiens; test: Inhibition of PDE
[19] = species: Canis familiaris; test: Cardiotoxicity in dog assessed as increase in heart rate at > 10 times IC50; assay type: toxicity, organism-based, Canis lupus familiaris; conditions: in vivo
[20] = biological target: High affinity cAMP-specific and IBMX-insensitive 3',5'-cyclic phosphodiesterase 8A (Homo sapiens, UniProt O60658); test: Inhibition of PDE8A
High affinity cAMP-specific and IBMX-insensitive 3',5'-cyclic phosphodiesterase 8A, sequence (O60658 whole entry): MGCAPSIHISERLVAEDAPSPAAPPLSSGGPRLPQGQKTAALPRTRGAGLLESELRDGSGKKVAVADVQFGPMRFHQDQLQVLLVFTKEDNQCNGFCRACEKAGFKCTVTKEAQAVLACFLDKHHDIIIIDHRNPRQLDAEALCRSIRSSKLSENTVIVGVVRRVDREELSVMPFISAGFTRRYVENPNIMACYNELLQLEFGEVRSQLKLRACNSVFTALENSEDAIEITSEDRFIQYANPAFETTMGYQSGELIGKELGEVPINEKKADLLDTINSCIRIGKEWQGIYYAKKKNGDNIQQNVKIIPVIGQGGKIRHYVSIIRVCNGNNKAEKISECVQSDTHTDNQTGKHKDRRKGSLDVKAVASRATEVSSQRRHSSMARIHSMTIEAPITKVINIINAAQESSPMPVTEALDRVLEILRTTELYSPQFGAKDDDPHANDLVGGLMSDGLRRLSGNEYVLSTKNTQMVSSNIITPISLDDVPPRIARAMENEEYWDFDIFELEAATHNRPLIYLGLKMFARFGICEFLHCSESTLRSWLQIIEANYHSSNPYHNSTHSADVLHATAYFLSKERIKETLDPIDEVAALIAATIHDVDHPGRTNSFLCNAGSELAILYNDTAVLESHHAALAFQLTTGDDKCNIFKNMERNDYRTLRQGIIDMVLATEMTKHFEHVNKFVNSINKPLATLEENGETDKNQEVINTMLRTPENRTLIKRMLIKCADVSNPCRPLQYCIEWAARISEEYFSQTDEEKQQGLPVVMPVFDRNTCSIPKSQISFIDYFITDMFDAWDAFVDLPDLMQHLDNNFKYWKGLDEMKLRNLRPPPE

[21] = species: Canis familiaris; test: Cardiotoxicity in dog assessed as increase in blood pressure at > 10 times IC50; assay type: toxicity, organism-based, Canis lupus familiaris
[22] = species: Homo sapiens; test: Selectivity ratio for PDE to PDE8B
[23] = Efflux ratio of permeability of the compound across MDCK cells; assay type: ADME, cell-based, Canis lupus familiaris; conditions: dog
[24] = Dissociation constant, pKa of the compound; assay type: physicochemical
[25] = Solubility of the compound at pH 7.4; assay type: physicochemical; conditions: buffer
[26] = biological target: Voltage-gated inwardly rectifying potassium channel KCNH2 (Homo sapiens, UniProt Q12809); test: Inhibition of human ERG
Voltage-gated inwardly rectifying potassium channel KCNH2, sequence (Q12809 whole entry): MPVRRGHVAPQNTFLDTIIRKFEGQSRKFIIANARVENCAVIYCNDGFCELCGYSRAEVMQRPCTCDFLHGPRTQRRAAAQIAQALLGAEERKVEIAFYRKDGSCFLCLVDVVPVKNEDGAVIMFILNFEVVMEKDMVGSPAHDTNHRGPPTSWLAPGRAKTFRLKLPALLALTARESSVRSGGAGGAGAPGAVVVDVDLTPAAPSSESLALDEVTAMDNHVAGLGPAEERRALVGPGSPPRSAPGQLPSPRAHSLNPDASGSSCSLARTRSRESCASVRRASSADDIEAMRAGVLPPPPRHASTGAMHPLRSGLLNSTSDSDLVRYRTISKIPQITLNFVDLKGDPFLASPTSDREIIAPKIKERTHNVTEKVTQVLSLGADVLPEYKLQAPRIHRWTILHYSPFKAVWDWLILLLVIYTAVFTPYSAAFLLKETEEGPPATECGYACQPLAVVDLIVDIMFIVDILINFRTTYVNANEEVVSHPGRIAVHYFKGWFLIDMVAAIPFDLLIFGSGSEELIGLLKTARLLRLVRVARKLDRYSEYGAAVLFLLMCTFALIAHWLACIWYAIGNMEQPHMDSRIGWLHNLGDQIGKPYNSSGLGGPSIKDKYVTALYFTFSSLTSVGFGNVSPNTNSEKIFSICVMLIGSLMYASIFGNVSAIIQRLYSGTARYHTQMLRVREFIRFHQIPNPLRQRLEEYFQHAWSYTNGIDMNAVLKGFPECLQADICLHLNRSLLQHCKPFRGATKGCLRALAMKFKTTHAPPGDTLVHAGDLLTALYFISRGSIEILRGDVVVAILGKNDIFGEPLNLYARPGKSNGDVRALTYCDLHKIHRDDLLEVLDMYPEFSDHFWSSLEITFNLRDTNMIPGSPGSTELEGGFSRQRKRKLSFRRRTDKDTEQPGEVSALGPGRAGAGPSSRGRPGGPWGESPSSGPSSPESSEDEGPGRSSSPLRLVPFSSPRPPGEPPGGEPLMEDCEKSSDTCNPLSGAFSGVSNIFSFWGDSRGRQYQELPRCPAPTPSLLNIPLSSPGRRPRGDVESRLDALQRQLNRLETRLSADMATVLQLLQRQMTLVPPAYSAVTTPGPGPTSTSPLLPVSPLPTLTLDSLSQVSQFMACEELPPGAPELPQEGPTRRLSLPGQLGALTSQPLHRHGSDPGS

[27] = biological target: Kappa-type opioid receptor (Homo sapiens) (UniProt P41145); test: Inhibition of kappa opioid receptor
Kappa-type opioid receptor (Homo sapiens), sequence (P41145 whole entry): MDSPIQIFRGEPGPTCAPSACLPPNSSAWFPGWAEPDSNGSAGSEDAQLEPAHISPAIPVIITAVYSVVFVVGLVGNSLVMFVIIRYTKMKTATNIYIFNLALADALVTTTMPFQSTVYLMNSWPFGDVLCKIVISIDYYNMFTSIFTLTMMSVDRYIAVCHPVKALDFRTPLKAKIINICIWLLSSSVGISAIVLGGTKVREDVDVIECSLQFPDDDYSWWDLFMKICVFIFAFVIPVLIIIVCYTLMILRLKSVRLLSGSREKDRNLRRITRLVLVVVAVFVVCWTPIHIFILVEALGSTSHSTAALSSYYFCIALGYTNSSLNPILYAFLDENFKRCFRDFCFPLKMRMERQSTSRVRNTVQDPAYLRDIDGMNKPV

[28] = Solubility of the compound at pH 4; assay type: physicochemical; conditions: buffer
[29] = Fraction unbound in human plasma; assay type: ADME, cell-free
[30] = Fraction unbound in rat plasma; assay type: ADME, cell-free

Structure (SMILES): Nc1nc(-c2ccccc2)nc2c1nnn2CC1CCCCO1 (centres undefined)
- microsomal CLint [1]: 17 µL/min/mg

Structure (SMILES): Nc1nc(C2CC2)nc2c1nnn2CC1CN(Cc2ccccc2)CCO1 (centres undefined)
- solubility [2]: soluble

Structure (SMILES): CCc1cnc(N2CC[C@@H](Cn3nnc4c(N)nc(C5CC5)nc43)C2)nc1
- microsomal CLint [1]: 52 µL/min/mg
- microsomal CLint [3]: 244 µL/min/mg

Structure (SMILES): COCc1nc(N)c2nnn(CC3CCCCO3)c2n1 (centres undefined)
- microsomal CLint [1]: < 7.2 µL/min/mg

Structure (SMILES): Nc1nc(C2CC2)nc2c1nnn2Cc1ccc(Cl)cc1
- microsomal CLint [1]: < 7.2 µL/min/mg

Structure (SMILES): Nc1nc(C2CC2)nc2c1nnn2C[C@H]1CN(Cc2ncccn2)CCO1
- Activity [4]: Non-toxic
- clearance [5]: 124 mL/min/kg
- clearance [6]: 7 mL/min/kg
- microsomal CLint [1]: 16 µL/min/mg
- Activity [7]: Non-toxic
- microsomal CLint [3]: 75 µL/min/mg

Structure (SMILES): CCc1nc(Cn2nnc3c(N)nc(C4CC4)nc32)cs1
- bioavailability [8]: < 5%
- clearance [5]: 29 mL/min/kg
- bioavailability [9]: < 5%
- Vd [10]: 0.9 L/kg
- clearance [6]: 11 mL/min/kg
- microsomal CLint [1]: 24.6 µL/min/mg
- microsomal CLint [3]: < 14 µL/min/mg
- Vd [11]: 5.5 L/kg

Structure (SMILES): Nc1nc(C(F)(F)F)nc2c1nnn2C[C@H]1CCCO1
- bioavailability [8]: 13%
- clearance [5]: 61 mL/min/kg
- bioavailability [9]: 17%
- Vd [10]: 1.4 L/kg
- clearance [6]: 22 mL/min/kg
- Vd [11]: 1.7 L/kg

Structure (SMILES): Nc1ncnc2c1nnn2CC1CCCCO1 (centres undefined)
- microsomal CLint [1]: < 7.2 µL/min/mg

Structure (SMILES): Nc1nc(C2CC2)nc2c1nnn2C[C@H]1CCCO1
- microsomal CLint [1]: 11.9 µL/min/mg
- microsomal CLint [3]: < 28 µL/min/mg

Structure (SMILES): Nc1nc(C2CC2)nc2c1ncn2C[C@H]1CCCO1
- IC50 [12]: > 2000 nM

Structure (SMILES): Nc1nc(C2CC2)nc2c1nnn2CC1CCCCO1 (centres undefined)
- microsomal CLint [1]: < 7.2 µL/min/mg
- microsomal CLint [13]: 93 µL/min/mg

Structure (SMILES): Nc1nc(C2CC2)nc2c1nnn2CC1CCCN(Cc2ccccc2)C1 (centres undefined)
- inhibition [14]: 60%
- microsomal CLint [1]: 150 µL/min/mg
- inhibition [15]: 64%
- IC50 [12]: 3620 nM

Structure (SMILES): Nc1nc(C2CC2)nc2c1nnn2C[C@@H]1CCN(Cc2nccs2)C1
- inhibition [14]: 62%
- microsomal CLint [1]: 30 µL/min/mg
- inhibition [15]: 52%
- microsomal CLint [3]: 230 µL/min/mg
- IC50 [12]: 206 nM

Structure (SMILES): Cc1nc(N)c2nnn(C[C@H]3CN(Cc4nccs4)CCO3)c2n1
- fraction unbound [16]: 0.78
- bioavailability [8]: 100%
- Activity [17]: Active
- Activity [4]: Non-toxic
- clearance [5]: 23 mL/min/kg
- bioavailability [9]: 63%
- INH [18]: > 10 µM
- Activity [19]: Toxic
- IC50 [20]: 1.9 nM
- Activity [21]: Toxic
- Selectivity ratio [22]: > 1000
- efflux ratio [23]: 3.5
- pKa [24]: 4.9
- solubility [25]: 150 µg/mL (≈ 0.433 mM)
- IC50 [26]: > 100000 nM
- INH [27]: 1.3 µM
- solubility [28]: 2900 µg/mL (≈ 8.37 mM)
- clearance [6]: 3.5 mL/min/kg
- microsomal CLint [1]: < 8 µL/min/mg
- fraction unbound [29]: 0.46
- fraction unbound [30]: 0.88
- Activity [7]: Non-toxic
- microsomal CLint [3]: < 14 µL/min/mg
- IC50 [12]: 1.3 nM

Structure (SMILES): Cc1ccnc(N2CCCC(Cn3nnc4c(N)nc(C5CC5)nc43)C2)n1 (centres undefined)
- microsomal CLint [1]: 303 µL/min/mg
- microsomal CLint [3]: 625 µL/min/mg

Structure (SMILES): Nc1nc(C(F)(F)F)nc2c1nnn2C[C@H]1CN(Cc2ccccn2)CCO1
- Activity [4]: Non-toxic
- clearance [5]: 121 mL/min/kg
- clearance [6]: 8.5 mL/min/kg
- microsomal CLint [1]: 36 µL/min/mg
- Activity [7]: Non-toxic
- microsomal CLint [3]: 36 µL/min/mg

Structure (SMILES): Cc1nc(N)c2nnn(C[C@H]3CN(Cc4cc(F)cc(F)c4)CCO3)c2n1
- Activity [4]: Non-toxic
- clearance [5]: 28 mL/min/kg
- bioavailability [9]: 12%
- clearance [6]: 4.8 mL/min/kg
- microsomal CLint [1]: 36 µL/min/mg
- Activity [7]: Non-toxic
- microsomal CLint [3]: 80 µL/min/mg

Structure (SMILES): Nc1nc(C2CCCCC2)nc2c1nnn2CC1CCCCO1 (centres undefined)
- microsomal CLint [1]: 100 µL/min/mg

Structure (SMILES): Nc1nc(C2CC2)nc2c1nnn2Cc1cc(C2CC2)n[nH]1
- microsomal CLint [1]: < 7.2 µL/min/mg

Structure (SMILES): FC(F)(F)c1nc(NCc2cccnc2)c2nnn(CC3CCCCO3)c2n1 (centres undefined)
- IC50 [12]: > 420 nM

Structure (SMILES): Nc1nc(C2CC2)nc2c1nnn2C[C@H]1CN(Cc2nccs2)CCO1
- Activity [4]: Non-toxic
- clearance [5]: 72 mL/min/kg
- bioavailability [9]: 20%
- microsomal CLint [1]: 20 µL/min/mg
- Activity [7]: Non-toxic
- microsomal CLint [3]: 50 µL/min/mg

Structure (SMILES): CC(C)n1cc(Cn2nnc3c(N)nc(C4CC4)nc32)cn1
- microsomal CLint [1]: < 7.2 µL/min/mg

Structure (SMILES): Nc1nc(C2CC2)nc2c1nnn2CC1CCCOC1 (centres undefined)
- microsomal CLint [1]: < 7.2 µL/min/mg
- microsomal CLint [3]: 35 µL/min/mg

Structure (SMILES): CCc1csc(CN2CCO[C@@H](Cn3nnc4c(N)nc(C)nc43)C2)n1
- Activity [4]: Non-toxic
- clearance [5]: 24 mL/min/kg
- bioavailability [9]: 45%
- clearance [6]: 5.6 mL/min/kg
- microsomal CLint [1]: 15 µL/min/mg
- Activity [7]: Non-toxic
- microsomal CLint [3]: 22 µL/min/mg
